Experimental data: ChEMBL document CHEMBL5291721, “A preclinical secondary pharmacology resource illuminates target-adverse drug reaction associations of marketed drugs” (Nat Commun, 2023)

Key:
Adenosine receptor A1 = biological target: T1, Adenosine receptor A1 (Homo sapiens, UniProt P30542)
T1 sequence (P30542 whole entry): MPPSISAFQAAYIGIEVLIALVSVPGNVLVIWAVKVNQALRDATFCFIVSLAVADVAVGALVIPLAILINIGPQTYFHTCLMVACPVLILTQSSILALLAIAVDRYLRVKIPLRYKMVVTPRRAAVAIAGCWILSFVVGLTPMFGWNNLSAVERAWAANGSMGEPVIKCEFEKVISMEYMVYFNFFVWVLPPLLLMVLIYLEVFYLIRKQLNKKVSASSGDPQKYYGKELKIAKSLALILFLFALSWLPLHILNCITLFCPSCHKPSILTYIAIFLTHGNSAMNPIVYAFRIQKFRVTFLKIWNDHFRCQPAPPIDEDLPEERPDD

D(1A) dopamine receptor = D(1A) dopamine receptor (Homo sapiens, UniProt P21728); format: functional, cell-based
Melanocortin receptor 3 = Melanocortin receptor 3 (Homo sapiens, UniProt P41968)
Histamine H3 receptor = Histamine H3 receptor (Homo sapiens, UniProt Q9Y5N1)
[1] = biological target: T2, 5-hydroxytryptamine receptor 3A (Homo sapiens, UniProt P46098); format: functional
T2 sequence (P46098 whole entry): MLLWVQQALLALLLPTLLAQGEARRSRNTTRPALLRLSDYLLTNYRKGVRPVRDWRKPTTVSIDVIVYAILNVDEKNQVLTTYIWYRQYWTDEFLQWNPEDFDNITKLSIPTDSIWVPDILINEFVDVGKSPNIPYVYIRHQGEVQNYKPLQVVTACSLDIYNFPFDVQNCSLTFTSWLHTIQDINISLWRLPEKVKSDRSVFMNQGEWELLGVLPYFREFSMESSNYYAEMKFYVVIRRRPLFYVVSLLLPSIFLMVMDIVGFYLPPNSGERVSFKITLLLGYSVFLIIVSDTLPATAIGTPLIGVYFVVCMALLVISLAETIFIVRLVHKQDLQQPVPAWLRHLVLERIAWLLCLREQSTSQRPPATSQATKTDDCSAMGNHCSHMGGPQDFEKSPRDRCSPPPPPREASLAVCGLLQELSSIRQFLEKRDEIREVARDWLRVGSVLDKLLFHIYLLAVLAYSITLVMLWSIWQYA

[2] = biological target: Gamma-aminobutyric acid receptor subunit alpha-1 (Rattus norvegicus, UniProt P62813); format: functional
[3] = biological target: T3, 5-hydroxytryptamine receptor 2C (Homo sapiens, UniProt P28335)
T3 sequence (P28335 whole entry): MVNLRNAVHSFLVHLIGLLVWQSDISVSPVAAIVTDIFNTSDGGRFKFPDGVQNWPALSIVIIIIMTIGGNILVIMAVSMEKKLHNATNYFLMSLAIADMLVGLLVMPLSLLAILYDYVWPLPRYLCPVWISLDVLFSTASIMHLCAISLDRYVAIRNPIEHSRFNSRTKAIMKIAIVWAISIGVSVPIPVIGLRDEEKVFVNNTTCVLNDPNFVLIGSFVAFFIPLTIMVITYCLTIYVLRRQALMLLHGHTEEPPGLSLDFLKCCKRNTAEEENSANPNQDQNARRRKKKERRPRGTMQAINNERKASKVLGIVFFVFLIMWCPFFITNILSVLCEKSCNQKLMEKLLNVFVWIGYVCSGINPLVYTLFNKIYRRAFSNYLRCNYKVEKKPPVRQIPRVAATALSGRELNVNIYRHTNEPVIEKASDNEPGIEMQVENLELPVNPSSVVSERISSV

[4] = biological target: Voltage-dependent L-type calcium channel subunit alpha-1C (Rattus norvegicus, UniProt P22002); format: functional
Mu-type opioid receptor = Mu-type opioid receptor (Homo sapiens, UniProt P35372)
[5] = biological target: T4, Neuropeptide Y receptor type 1 (Homo sapiens, UniProt P25929)
T4 sequence (P25929 whole entry): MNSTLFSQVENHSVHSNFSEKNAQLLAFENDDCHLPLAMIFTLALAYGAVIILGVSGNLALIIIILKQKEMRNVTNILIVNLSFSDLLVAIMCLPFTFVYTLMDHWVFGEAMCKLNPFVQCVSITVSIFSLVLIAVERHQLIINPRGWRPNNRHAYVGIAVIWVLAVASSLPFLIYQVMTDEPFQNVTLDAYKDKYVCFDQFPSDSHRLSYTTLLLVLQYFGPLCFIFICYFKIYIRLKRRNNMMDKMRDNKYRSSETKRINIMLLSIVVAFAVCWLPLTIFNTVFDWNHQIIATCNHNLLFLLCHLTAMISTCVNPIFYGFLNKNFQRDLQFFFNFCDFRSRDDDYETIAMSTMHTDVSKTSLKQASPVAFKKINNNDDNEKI

Adenosine receptor A3 = biological target: T5, Adenosine receptor A3 (Homo sapiens, UniProt P0DMS8)
T5 sequence (P0DMS8 whole entry): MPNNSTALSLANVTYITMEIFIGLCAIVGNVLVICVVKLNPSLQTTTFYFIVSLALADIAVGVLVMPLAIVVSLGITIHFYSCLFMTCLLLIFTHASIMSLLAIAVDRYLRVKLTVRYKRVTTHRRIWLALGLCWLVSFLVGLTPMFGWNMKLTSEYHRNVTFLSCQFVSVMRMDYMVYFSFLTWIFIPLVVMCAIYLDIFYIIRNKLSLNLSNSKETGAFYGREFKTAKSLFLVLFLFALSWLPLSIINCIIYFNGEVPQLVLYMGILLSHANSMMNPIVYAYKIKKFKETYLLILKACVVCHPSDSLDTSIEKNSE

[6] = biological target: Sodium-dependent serotonin transporter (Homo sapiens, UniProt P31645)
[7] = biological target: Vascular endothelial growth factor receptor 2 (Homo sapiens, UniProt P35968); format: functional
Note: assay procedure not described here.

Sequence of Gamma-aminobutyric acid receptor subunit alpha-1 (P62813 whole entry): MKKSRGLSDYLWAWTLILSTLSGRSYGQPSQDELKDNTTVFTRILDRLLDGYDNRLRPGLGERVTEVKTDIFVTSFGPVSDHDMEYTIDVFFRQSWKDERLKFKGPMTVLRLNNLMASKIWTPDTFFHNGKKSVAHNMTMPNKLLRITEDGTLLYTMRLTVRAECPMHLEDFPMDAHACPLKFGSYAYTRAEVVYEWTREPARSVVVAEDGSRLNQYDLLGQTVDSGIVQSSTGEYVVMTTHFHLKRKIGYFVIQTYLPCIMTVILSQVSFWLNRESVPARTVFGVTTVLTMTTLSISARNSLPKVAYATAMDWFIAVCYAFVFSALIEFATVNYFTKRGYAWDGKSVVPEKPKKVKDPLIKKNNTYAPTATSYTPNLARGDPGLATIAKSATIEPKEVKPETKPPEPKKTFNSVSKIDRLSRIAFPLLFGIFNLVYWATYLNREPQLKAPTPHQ
Sequence of Histamine H3 receptor (Q9Y5N1 whole entry): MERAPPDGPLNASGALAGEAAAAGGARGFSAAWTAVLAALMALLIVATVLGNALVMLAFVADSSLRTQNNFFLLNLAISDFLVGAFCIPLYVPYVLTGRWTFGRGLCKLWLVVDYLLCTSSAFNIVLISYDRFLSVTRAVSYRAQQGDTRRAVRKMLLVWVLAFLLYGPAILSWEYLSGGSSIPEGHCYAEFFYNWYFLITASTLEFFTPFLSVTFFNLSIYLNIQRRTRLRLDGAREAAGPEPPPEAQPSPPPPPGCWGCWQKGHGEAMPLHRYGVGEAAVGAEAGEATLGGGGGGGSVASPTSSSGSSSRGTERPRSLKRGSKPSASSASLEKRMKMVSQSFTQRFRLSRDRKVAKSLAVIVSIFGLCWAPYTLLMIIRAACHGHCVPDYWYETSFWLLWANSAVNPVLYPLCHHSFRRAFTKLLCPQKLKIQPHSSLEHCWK
Sequence of Melanocortin receptor 3 (P41968 whole entry): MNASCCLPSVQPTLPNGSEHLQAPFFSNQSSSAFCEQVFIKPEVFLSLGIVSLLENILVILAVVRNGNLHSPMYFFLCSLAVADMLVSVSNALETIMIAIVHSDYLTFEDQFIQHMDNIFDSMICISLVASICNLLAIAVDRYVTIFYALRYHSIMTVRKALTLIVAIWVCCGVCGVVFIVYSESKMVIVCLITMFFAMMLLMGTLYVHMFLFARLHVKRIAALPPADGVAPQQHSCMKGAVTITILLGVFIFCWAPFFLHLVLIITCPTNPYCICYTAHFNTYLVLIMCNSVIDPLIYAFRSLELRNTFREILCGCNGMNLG
Sequence of Voltage-dependent L-type calcium channel subunit alpha-1C (P22002 whole entry): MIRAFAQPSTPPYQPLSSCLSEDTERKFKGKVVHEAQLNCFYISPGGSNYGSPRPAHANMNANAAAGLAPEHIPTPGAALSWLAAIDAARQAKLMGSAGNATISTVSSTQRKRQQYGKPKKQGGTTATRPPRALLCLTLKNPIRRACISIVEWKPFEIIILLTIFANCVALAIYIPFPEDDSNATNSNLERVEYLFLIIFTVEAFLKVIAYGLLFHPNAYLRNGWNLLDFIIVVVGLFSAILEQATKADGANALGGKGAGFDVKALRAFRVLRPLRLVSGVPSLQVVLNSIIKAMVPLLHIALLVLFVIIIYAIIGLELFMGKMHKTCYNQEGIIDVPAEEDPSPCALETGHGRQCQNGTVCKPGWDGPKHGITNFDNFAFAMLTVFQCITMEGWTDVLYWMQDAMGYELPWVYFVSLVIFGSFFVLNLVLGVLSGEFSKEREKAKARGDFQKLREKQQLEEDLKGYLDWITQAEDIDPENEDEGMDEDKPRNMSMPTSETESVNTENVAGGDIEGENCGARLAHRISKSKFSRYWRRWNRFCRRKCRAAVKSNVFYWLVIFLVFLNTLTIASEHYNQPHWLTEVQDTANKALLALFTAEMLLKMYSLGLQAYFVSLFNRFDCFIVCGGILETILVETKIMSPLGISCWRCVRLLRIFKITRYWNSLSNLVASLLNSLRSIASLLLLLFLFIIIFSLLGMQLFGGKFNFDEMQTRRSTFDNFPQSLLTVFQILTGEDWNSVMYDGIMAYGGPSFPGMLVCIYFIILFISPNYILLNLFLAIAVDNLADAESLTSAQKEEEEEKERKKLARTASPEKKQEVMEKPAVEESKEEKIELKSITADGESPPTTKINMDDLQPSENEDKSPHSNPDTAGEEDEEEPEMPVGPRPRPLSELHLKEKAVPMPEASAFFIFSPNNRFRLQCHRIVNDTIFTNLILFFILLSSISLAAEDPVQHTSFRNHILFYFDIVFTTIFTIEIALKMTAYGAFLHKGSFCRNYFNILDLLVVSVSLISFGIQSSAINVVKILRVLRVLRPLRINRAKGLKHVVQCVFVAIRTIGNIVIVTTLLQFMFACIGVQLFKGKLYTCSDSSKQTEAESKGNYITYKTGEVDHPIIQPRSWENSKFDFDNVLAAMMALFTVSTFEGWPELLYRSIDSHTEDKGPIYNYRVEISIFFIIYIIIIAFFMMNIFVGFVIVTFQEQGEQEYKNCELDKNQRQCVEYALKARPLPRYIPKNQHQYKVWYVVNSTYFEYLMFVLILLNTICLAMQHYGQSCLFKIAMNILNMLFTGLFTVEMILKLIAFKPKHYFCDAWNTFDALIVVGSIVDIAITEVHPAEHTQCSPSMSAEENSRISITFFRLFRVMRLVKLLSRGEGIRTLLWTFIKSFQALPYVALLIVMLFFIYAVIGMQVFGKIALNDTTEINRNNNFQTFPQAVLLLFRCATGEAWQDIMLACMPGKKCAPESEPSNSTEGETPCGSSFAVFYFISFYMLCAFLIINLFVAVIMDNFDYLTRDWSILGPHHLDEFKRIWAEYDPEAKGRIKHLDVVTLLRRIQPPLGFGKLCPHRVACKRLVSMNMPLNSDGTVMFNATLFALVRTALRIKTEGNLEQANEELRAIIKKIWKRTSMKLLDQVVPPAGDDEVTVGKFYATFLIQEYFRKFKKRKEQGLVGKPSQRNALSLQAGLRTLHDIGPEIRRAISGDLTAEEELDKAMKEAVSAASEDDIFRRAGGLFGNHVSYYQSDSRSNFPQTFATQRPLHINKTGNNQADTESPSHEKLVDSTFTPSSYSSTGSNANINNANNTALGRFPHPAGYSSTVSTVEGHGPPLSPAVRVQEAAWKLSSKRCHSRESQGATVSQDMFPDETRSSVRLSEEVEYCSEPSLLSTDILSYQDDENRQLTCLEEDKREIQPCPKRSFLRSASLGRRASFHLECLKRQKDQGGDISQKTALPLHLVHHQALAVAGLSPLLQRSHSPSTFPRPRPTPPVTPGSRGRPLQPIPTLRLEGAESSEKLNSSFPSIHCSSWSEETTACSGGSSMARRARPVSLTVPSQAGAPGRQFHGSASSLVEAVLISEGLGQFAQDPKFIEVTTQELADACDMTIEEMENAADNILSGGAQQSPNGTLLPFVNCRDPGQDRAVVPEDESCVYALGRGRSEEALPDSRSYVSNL
Sequence of D(1A) dopamine receptor (P21728 whole entry): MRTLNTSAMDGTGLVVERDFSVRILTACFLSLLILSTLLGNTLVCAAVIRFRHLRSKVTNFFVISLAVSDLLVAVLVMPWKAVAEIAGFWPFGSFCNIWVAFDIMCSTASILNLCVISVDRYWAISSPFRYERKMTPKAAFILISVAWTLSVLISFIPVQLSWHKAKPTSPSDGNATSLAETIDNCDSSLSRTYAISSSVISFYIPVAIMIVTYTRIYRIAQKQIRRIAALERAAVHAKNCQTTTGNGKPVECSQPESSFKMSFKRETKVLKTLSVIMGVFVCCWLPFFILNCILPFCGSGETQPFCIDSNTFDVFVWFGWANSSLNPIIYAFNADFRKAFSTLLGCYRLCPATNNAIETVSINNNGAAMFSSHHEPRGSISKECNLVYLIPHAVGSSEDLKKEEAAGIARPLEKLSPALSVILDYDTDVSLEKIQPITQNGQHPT
Sequence of Mu-type opioid receptor (P35372 whole entry): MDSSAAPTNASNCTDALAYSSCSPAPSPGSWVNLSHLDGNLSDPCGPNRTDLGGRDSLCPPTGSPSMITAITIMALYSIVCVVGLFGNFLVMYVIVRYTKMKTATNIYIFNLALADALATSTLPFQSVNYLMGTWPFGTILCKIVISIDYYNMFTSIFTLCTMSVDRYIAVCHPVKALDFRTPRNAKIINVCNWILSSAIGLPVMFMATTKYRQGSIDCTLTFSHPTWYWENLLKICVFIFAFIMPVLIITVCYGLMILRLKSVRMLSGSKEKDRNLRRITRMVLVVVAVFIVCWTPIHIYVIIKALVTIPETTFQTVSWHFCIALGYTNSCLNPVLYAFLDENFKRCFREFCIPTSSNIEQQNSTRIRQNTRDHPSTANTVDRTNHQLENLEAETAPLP
Sequence of Sodium-dependent serotonin transporter (P31645 whole entry): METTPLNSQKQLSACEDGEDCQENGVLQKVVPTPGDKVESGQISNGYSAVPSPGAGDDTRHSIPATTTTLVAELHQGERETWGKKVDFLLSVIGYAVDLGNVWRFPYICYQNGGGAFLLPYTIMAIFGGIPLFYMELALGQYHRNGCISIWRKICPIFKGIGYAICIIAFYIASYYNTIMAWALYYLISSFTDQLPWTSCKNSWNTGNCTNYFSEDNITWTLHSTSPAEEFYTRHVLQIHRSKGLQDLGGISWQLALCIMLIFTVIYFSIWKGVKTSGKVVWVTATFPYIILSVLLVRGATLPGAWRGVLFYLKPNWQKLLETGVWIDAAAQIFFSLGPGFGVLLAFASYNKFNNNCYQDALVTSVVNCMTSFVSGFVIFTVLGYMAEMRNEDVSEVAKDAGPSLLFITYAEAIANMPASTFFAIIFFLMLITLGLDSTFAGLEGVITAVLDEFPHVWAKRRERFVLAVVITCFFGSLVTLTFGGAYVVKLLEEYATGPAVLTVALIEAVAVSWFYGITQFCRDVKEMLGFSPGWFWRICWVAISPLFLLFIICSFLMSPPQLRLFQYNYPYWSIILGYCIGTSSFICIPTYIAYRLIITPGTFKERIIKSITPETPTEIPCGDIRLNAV

Compound | AC50 (Adenosine receptor A1) | AC50 (D(1A) dopamine receptor) | AC50 (Melanocortin receptor 3) | AC50 (Histamine H3 receptor) | AC50 [1] | AC50 [2] | AC50 [3] | AC50 [4] | AC50 (Mu-type opioid receptor) | AC50 [5] | AC50 (Adenosine receptor A3) | AC50 [6] | AC50 [7]
CC1(C)S[C@@H]2[C@H](NC(=O)[C@H](N)c3ccc(O)cc3)C(=O)N2[C@H]1C(=O)O [AMOXICILLIN] | > 30 µM | > 30 µM | > 30 µM | > 30 µM | > 30 µM | > 30 µM | > 30 µM | > 30 µM | > 10 µM | > 30 µM |  |  | 
O=C1CN2Cc3c(ccc(Cl)c3Cl)N=C2N1 [ANAGRELIDE] | > 30 µM | > 10 µM | > 30 µM | > 10 µM | > 30 µM | > 10 µM | > 30 µM | > 10 µM | > 30 µM | > 30 µM |  |  | 
CCc1oc2ccccc2c1C(=O)c1cc(Br)c(O)c(Br)c1 [BENZBROMARONE] | > 30 µM | > 30 µM | > 30 µM | > 30 µM | > 30 µM | > 30 µM | > 30 µM | > 10 µM | 26 µM |  |  |  | 
Clc1cccc(Cl)c1N=C1NCCN1 [CLONIDINE] | > 30 µM | > 10 µM | > 30 µM | > 10 µM | > 30 µM | > 10 µM | > 30 µM | > 10 µM | > 30 µM | > 30 µM |  |  | 
COC(=O)[C@H](c1ccccc1Cl)N1CCc2sccc2C1 [CLOPIDOGREL] | > 30 µM | 19 µM | > 30 µM | > 30 µM | > 30 µM | > 30 µM | > 30 µM | > 30 µM | 13 µM | > 30 µM |  |  | 
CN1C[C@H](C(=O)N[C@]2(C)O[C@@]3(O)[C@@H]4CCCN4C(=O)[C@H](Cc4ccccc4)N3C2=O)C[C@@H]2c3cccc4[nH]cc(c34)C[C@H]21 [DIHYDROERGOTAMINE] | > 30 µM | 0.358 µM | > 30 µM | > 10 µM | > 30 µM | > 10 µM | 0.5 µM | > 10 µM | > 30 µM | > 30 µM |  |  | 
C#Cc1cccc(Nc2ncnc3cc(OCCOC)c(OCCOC)cc23)c1 [ERLOTINIB] | > 30 µM | > 30 µM | > 30 µM | > 30 µM | > 30 µM | > 30 µM | > 30 µM |  | 29 µM |  | 3.01 µM |  | 
Cc1cnc(NC(=O)C2=C(O)c3ccccc3S(=O)(=O)N2C)s1 [MELOXICAM] | > 30 µM | > 10 µM | > 30 µM | > 10 µM | > 10 µM | > 10 µM | > 10 µM | > 10 µM | > 10 µM | > 30 µM |  |  | 
CC(=O)/N=c1/sc(S(N)(=O)=O)nn1C [METHAZOLAMIDE] | > 10 µM | > 10 µM | > 10 µM |  | > 30 µM | > 10 µM | > 30 µM | > 10 µM | > 30 µM | > 10 µM | > 30 µM | > 30 µM | > 30 µM
COc1ccnc(C[S+]([O-])c2nc3ccc(OC(F)F)cc3[nH]2)c1OC (centres undefined) [PANTOPRAZOLE] | > 30 µM | > 10 µM | > 30 µM | > 10 µM | > 30 µM | > 10 µM | > 30 µM | > 10 µM | > 30 µM | > 30 µM |  |  | 
O=C1NC(=O)C(c2ccccc2)(c2ccccc2)N1 [PHENYTOIN] | > 30 µM | > 30 µM | > 30 µM | > 30 µM | > 30 µM | > 30 µM | > 30 µM | > 10 µM | > 30 µM | > 30 µM |  |  | 
CC(C)C[C@H](CN)CC(=O)O [PREGABALIN] | > 30 µM | > 30 µM | > 30 µM | > 30 µM | > 30 µM | > 30 µM | > 30 µM | > 30 µM | > 30 µM | > 30 µM |  |  | 
NC(=O)c1ncn([C@@H]2O[C@H](CO)[C@@H](O)[C@H]2O)n1 [RIBAVIRIN] |  | > 10 µM | > 10 µM | > 10 µM | > 30 µM | > 10 µM | > 30 µM | > 10 µM | > 30 µM | > 10 µM |  |  | 
CCCN(CCC)CCc1cccc2c1CC(=O)N2 [ROPINIROLE] | > 30 µM | > 30 µM | > 30 µM | 9.25 µM | > 30 µM | > 30 µM | > 30 µM | > 10 µM | 9.67 µM | > 30 µM |  |  | 
CC(C)N(CCCCOCC(=O)NS(C)(=O)=O)c1cnc(-c2ccccc2)c(-c2ccccc2)n1 [SELEXIPAG] | > 30 µM | > 30 µM | > 30 µM | > 30 µM | > 30 µM | > 30 µM | > 30 µM | > 30 µM | > 30 µM | > 30 µM |  |  | 
CC(=O)S[C@@H]1CC2=CC(=O)CC[C@]2(C)[C@H]2CC[C@@]3(C)[C@@H](CC[C@@]34CCC(=O)O4)[C@H]12 [SPIRONOLACTONE] | > 30 µM | > 30 µM | > 30 µM | > 30 µM | > 30 µM | > 10 µM | > 30 µM | > 10 µM | > 30 µM | > 30 µM |  |  | 
CCCCNc1ccc(C(=O)OCCN(C)C)cc1 [TETRACAINE] | > 30 µM | > 10 µM | > 30 µM | > 10 µM | > 10 µM | > 10 µM | > 10 µM | > 10 µM | > 10 µM | > 30 µM |  |  | 
Cn1c(=O)c2[nH]cnc2n(C)c1=O [THEOPHYLLINE] |  | > 10 µM | > 30 µM | > 10 µM | > 30 µM | > 10 µM | > 30 µM | > 10 µM | > 30 µM | > 30 µM |  |  | 
CC1(C)O[C@@H]2[C@@H](CO[C@@]3(COS(N)(=O)=O)OC(C)(C)O[C@@H]23)O1 [TOPIRAMATE] | > 30 µM | > 10 µM | > 30 µM | > 10 µM | > 10 µM | > 10 µM | > 30 µM | > 10 µM | > 10 µM | > 30 µM |  | > 30 µM | 
